Assay results from patent US20130197480A1, “METHODS AND SYSTEMS FOR DELIVERY OF LIVE CELLS” (PALOMAR MEDICAL TECHNOLOGIES, INC., priority 2012, published 2013).

System: Human fibroblast cells in culture
Experiment: Common laser pre-treatment compounds incubated 45 min with cultured human fibroblasts, visual inspection
Conditions: for Viability/Inspection 24 hrs / Viability/Inspector 1 week: cells rinsed, fresh media; for Viability/Inspection 24 hrs: observed 24 hours post exposure; for Viability/Inspector 1 week: observed one week post exposure; for Viability/nspection 45 min: visual inspection after 45 minutes incubation with compound
Experimental: AG07999 human skin fibroblasts (HSF; Coriell, Camden, N.J.) were grown to confluence in minimal essential media (MEM; Gibco, Grand Island, N.Y.) supplemented with 10% FBS (Hyclone, Logan, Utah), 20 mM L-glutamine, and 20 mM Glutamax™ (Gibco). Cells were maintained in an incubator at 37° C. and 5% CO2 and serially passaged with trypsin digestion at a 1:3 ratio as needed.
This example describes in vitro (in silico) testing of compounds added to human fibroblast cell cultures to determine any detrimental effects to the cells.
The remaining compositions and mixtures were tested as they are expected to be common treatments that might be used for numbing or cleansing of skin prior to laser treatment and cell delivery, or coagulation compounds, that are available in most physician offices. […] In addition, the delivery vehicle for SRF and lidocaine were tested to determine which vehicle (cream, lotion, petrolatum, lipoderm) was least destructive to the cells.

| SMILES | Viability/Inspection 24 hrs | Viability/Inspector 1 week | Viability/nspection 45 min |
| --- | --- | --- | --- |
| CCN(CC)CC(=O)Nc1c(C)cccc1C [Lidocaine 0.5%, Lidocaine] | Normal | Confluent/overgrown | Normal |
| CNC[C@H](O)c1ccc(O)c(O)c1 [Epinephrine 1:10,000,000, Epinephrine] | Normal | Confluent/overgrown | Normal |
| CNC[C@H](O)c1ccc(O)c(O)c1 [Epinephrine 1:100,000, Epinephrine] | Normal | Confluent/overgrown | Slight change in morphology, |
